Laboratory results as given in patent publication US10669272B2, “Substituted naphthyridinone compounds useful as T cell activators” (BRISTOL-MYERS SQUIBB COMPANY, priority 2018, dated 2020).
Where two headings read alike, the source gives them in different places.

How the values were obtained:
human DGKζ = target: T1, human DGKζ (Homo sapiens, UniProt Q13574); assay: DGKζ LIPGLO assay (extruded liposome substrate), in vitro DGK inhibition; assay type: biochemical; details: read-out: DGKz LIPGLO IC50
T1 construct: TVMV protease cleavage site (C); Hexa-His (C); made in house; host or cells: Sf9 insect cells (baculovirus, Bac-to-Bac)

human DGKα = target: T2, human DGKα (Homo sapiens, UniProt P23743); assay: DGKα LIPGLO assay (extruded liposome substrate), in vitro DGK inhibition; assay type: biochemical; details: read-out: DGKa LIPGLO IC50
T2 construct: TVMV protease cleavage site (C); Hexa-His (C); made in house; host or cells: Sf9 insect cells (baculovirus, Bac-to-Bac)
T2 sequence (P23743 with tags, fused parts or gaps): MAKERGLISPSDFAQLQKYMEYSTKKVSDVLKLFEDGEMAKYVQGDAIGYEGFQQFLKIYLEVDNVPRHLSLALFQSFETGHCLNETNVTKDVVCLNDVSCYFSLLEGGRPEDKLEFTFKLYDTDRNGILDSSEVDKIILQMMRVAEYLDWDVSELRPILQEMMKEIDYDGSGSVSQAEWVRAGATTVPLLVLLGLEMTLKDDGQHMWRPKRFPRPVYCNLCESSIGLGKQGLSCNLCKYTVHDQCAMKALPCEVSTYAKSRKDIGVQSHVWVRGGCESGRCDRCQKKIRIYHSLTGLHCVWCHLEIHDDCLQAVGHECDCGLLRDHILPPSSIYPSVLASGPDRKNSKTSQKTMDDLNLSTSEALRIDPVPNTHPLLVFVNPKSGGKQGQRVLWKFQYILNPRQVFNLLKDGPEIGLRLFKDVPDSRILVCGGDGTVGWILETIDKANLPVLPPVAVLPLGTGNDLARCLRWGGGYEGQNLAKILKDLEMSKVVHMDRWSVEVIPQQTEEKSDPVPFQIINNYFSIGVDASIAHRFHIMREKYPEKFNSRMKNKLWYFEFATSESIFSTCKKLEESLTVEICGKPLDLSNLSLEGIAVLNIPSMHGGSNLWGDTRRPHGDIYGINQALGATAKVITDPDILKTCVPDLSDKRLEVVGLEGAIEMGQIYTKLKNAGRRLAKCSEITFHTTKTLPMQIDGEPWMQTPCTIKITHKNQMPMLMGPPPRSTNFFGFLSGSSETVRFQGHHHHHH

T1 sequence (Q13574 with tags, fused parts or gaps isoform Q13574-4): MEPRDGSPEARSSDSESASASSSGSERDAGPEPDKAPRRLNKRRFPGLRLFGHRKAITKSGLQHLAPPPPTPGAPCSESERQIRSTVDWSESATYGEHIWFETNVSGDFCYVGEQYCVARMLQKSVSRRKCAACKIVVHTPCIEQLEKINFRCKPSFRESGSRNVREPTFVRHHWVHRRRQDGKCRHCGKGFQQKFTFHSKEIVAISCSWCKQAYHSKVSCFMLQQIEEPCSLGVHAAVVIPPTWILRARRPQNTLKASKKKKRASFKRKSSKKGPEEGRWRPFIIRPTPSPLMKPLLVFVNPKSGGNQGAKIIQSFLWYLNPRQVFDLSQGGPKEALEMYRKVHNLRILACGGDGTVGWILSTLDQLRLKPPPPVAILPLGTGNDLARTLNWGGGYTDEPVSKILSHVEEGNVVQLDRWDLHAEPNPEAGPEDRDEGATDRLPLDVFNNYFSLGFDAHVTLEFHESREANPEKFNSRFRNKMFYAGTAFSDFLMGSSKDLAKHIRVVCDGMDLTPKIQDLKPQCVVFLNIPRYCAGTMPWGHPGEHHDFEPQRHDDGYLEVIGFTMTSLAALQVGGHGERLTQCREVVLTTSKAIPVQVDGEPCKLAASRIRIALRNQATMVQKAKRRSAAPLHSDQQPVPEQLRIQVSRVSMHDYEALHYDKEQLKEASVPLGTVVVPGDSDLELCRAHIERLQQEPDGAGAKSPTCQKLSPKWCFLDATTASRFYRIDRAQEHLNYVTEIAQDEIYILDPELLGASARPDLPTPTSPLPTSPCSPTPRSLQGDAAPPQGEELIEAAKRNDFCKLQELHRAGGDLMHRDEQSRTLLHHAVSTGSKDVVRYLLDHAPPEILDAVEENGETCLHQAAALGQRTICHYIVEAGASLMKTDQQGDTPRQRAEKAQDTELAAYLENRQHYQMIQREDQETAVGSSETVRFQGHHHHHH

Row | SMILES | IC50 (human DGKζ; liposome (LIPGLO) assay) [nM] | IC50 (human DGKα; liposome (LIPGLO) assay) [nM] | IC50 (human DGKζ; DGKζ liposome (LIPGLO) assay) [nM] | IC50 (human DGKα; DGKα liposome (LIPGLO) assay) [nM]
1 | C[C@@H]1CN(c2c(C#N)c(=O)n(C)c3ccc(C#N)nc23)CCN1C(c1ccc(F)cc1)c1ccncn1 (single isomer, unassigned) [Example 312] | 3400 | 710 |  | 
2 | CC(c1ccc(C(=O)O)cc1)N1CCN(c2c(C#N)c(=O)n(C)c3ccc(C#N)nc23)C[C@H]1C (some centres unmarked) [Example 973] |  |  | > 250000 | > 250000
3 | C[C@@H]1CN(c2cc(=O)n(C)c3ccc(C#N)nc23)[C@@H](C)CN1C(c1ccc(F)cc1)c1cnccn1 (single isomer, unassigned) [Example 674] | 4300 | 400 |  | 
4 | C[C@@H]1CN(C(c2ccc(F)cc2)c2ccc(C#N)cc2)[C@@H](CO)CN1c1cc(=O)n(C)c2ccc(C#N)nc12 (single isomer, unassigned) [Example 1176] | 2900 | 12000 |  | 
5 | Cc1ccc(C(c2ccc(Cl)cn2)N2CCN(c3c(C#N)c(=O)n(C)c4ccc(C#N)nc34)C[C@H]2C)cc1 (single isomer, unassigned) [Example 937] |  |  | 1100 | 340
6 | C[C@@H]1CN(c2cc(=O)n(C)c3ccc(C#N)nc23)[C@@H](C)CN1C(c1ccc(F)cc1)c1ccc(P(C)(C)=O)cc1 (single isomer, unassigned) [Example 1293] | 6100 | 100000 |  | 
7 | C[C@@H]1CN(c2c(C#N)c(=O)n(C)c3ccc(C#N)nc23)CCN1C(c1ccc(F)cc1)c1cccc2c1OC(C)(C)C2 (single isomer, unassigned) [Example 935] |  |  | 1800 | 1900
8 | C[C@@H]1CN(c2cc(=O)n(C)c3ccc(C#N)nc23)[C@@H](C)CN1Cc1cccc2c1OCCN2C(=O)OC(C)(C)C [Example 630] | 13000 | 390 |  | 
9 | Cc1ccnc(C(c2ccc(Cl)cc2)N2C[C@H](C)N(c3cc(=O)n(C)c4ccc(C#N)nc34)C[C@H]2C)c1 (single isomer, unassigned) [Example 364] | 3900 | 1600 |  | 
10 | CC(c1ccc(Cl)cc1)N1CCN(c2c(C#N)c(=O)n(C)c3ccc(C#N)nc23)C[C@H]1C (single isomer, unassigned) [Example 978] |  |  | 4900 | 1300
11 | C[C@@H]1CN(c2cc(=O)n(C)c3ccc(C#N)nc23)[C@@H](C)CN1C(c1ccc(C#N)cc1)c1ccc(F)cn1 (stereo partly drawn) [Example 464, 8-((2S,5R)-4-((4-cyanophenyl)(5-fluoropyridin-2-yl)methyl)-2,5-dimethylpiperazin-1-yl)-5-methyl-6-oxo-5,6-dihydro-1,5-naphthyridine-2-carbonitrile] | 1700 | 280 |  | 
12 | CC(c1ccc(Br)cc1)N1C[C@H](C)N(c2c(C#N)c(=O)n(C)c3ccc(C#N)nc23)C[C@H]1C (single isomer, unassigned) [Example 790] |  |  | > 250000 | 610
13 | C[C@@H]1CN(c2cc(=O)n(C)c3ccc(C#N)nc23)[C@@H](C)CN1C(c1ccc(Cl)cc1)c1ccc2c(c1)OC(F)(F)O2 (single isomer, unassigned) [Example 656] | 4000 | 23000 |  | 
14 | CC[C@H]1CN(C(c2ccc(C)cc2)c2ccc(Cl)cc2)[C@H](C)CN1c1cc(=O)n(C)c2ccc(C#N)nc12 (single isomer, unassigned) [Example 1121] | 2700 | 1800 |  | 
15 | CC(c1ccc(C(=O)O)cc1)N1C[C@H](C)N(c2c(C#N)c(=O)n(C)c3ccc(C#N)nc23)C[C@H]1C (some centres unmarked) [Example 786] |  |  | 83000 | > 250000
16 | CCC(c1ccc(OC(F)(F)F)cc1F)N1C[C@H](CC)N(c2cc(=O)n(C)c3ccc(C#N)nc23)C[C@H]1CC (single isomer, unassigned) [Example 1057] | 40 | 23 |  | 
17 | C[C@@H]1CN(c2cc(=O)n(C)c3ccc(C#N)nc23)[C@@H](C)CN1Cc1nnc(C(F)(F)F)o1 [Example 1436] | 5600 | 11000 |  | 

Row | SMILES | IC50 (human DGKζ; liposome (LIPGLO) assay) [nM] | IC50 (human DGKα; liposome (LIPGLO) assay) [nM] | IC50 (human DGKζ; DGKζ liposome (LIPGLO) assay) [nM] | IC50 (human DGKα; DGKα liposome (LIPGLO) assay) [nM]
18 | C[C@@H]1CN(c2c(C#N)c(=O)n(C)c3ccc(C#N)nc23)CCN1Cc1cccc(OC(F)(F)F)c1 [Example 1008] |  |  | 7100 | 1700
19 | COC[C@@H]1CN(c2cc(=O)n(C)c3ccc(C#N)nc23)[C@@H](C)CN1C(c1ccc(F)cc1)c1nc(C2CC2)no1 (stereo partly drawn) [Example 1393, 8-((2S,5S)-4-((3-cyclopropyl-1,2,4-oxadiazol-5-yl)(4-fluorophenyl)methyl)-5-(methoxymethyl)-2-methylpiperazin-1-yl)-5-methyl-6-oxo-5,6-dihydro-1,5-naphthyridine-2-carbonitrile] | 16 | 22 |  | 
20 | CC[C@@H]1CN(c2cc(=O)n(C)c3ccc(C#N)nc23)[C@@H](C)CN1C(C)c1ccc(OC(F)(F)F)cc1F (single isomer, unassigned) [Example 1096] | 1400 | 2200 |  | 
21 | C[C@@H]1CN(c2c(C(F)F)c(=O)n(C)c3ccc(C#N)nc23)[C@@H](C)CN1Cc1ccc(OC(F)(F)F)cc1F [Example 570] | > 250000 | > 250000 |  | 
22 | Cc1nc2ccc(C(C)N3C[C@H](C)N(c4cc(=O)n(C)c5ccc(C#N)nc45)C[C@H]3C)cc2s1 (single isomer, unassigned) [Example 1263] | 150 | 950 |  | 
23 | COc1ccc(C(C)N2C[C@H](C)N(c3cc(=O)n(C)c4ccc(C#N)nc34)C[C@H]2C)cc1OCCN1CCOCC1 (some centres unmarked) [Example 1304] | 17000 | 110000 |  | 
24 | Cc1ccc(CCN2C[C@H](C)N(c3cc(=O)n(C)c4ccc(C#N)nc34)C[C@H]2C)cc1 [Example 633] | 10000 | 6700 |  | 
25 | C[C@@H]1CN(c2c(C#N)c(=O)n(C)c3ccc(C#N)nc23)[C@@H](C)CN1C(c1ccc(F)cc1)c1cn(C)cn1 (single isomer, unassigned) [Example 852] |  |  | 5700 | 1300
26 | Cc1nc2c(C(C)N3C[C@H](C)N(c4cc(=O)n(C)c5ccc(C#N)nc45)C[C@H]3C)cccc2o1 (single isomer, unassigned) [Example 1260] | 86 | 54000 |  | 
27 | C[C@@H]1CN(c2cc(=O)n(C)c3ccc(C#N)nc23)[C@@H](C)CN1C(c1ccc(F)cc1)c1noc(C(C)(C)C)n1 (single isomer, unassigned) [Example 765] |  |  | 130 | 620
28 | CC(c1ccc(Br)cc1)N1C[C@H](C)N(c2c(C#N)c(=O)n(C)c3ccc(C#N)nc23)C[C@H]1C (single isomer, unassigned) [Example 789] |  |  | 7000 | 1200
29 | C[C@@H]1CN(c2c(C#N)c(=O)n(C)c3ccc(C#N)nc23)CCN1C(c1ccc(Cl)cc1)c1ccc(F)cn1 (single isomer, unassigned) [Example 901] |  |  | 1700 | 390
30 | CC(c1ccc(OC(F)F)cc1)N1C[C@H](C)N(c2c(C#N)c(=O)n(C)c3ccc(C#N)nc23)C[C@H]1C (single isomer, unassigned) [Example 1376] | 17000 | 840 |  | 
31 | C[C@@H]1CN(c2c(C#N)c(=O)n(C)c3ccc(C#N)nc23)CCN1C(c1ccc(Cl)cc1)c1ncccc1F (some centres unmarked) [Example 909] |  |  | 16000 | 3400
32 | C[C@@H]1CN(c2cc(=O)n(C)c3ccc(C#N)nc23)[C@@H](C)CN1Cc1cn(C)nn1 [Example 1435] |  | 160000 |  | 
33 | Cc1nnc(C(C)N2C[C@H](C)N(c3cc(=O)n(C)c4ccc(C#N)nc34)C[C@H]2C)o1 (some centres unmarked) [Example 1437] |  | 150000 |  | 
34 | CC[C@H]1CN(C(c2ccc(F)cc2)c2nc(C3CC3)no2)[C@H](CC)CN1c1cc(=O)n(C)c2ccc(C#N)nc12 (some centres unmarked) [Example 1065] | 31 |  |  | 
